Source: US20200262877A1, “ION CHANNEL-BINDING PEPTIDES AND METHODS OF USE THEREOF” (priority 2017, published 2020)
“And” between values parts separate entries of the source, which are not always exact repeats. Equal values may be shown once. Where a name gives a salt, the structure may show the parent alone.

What was measured:
Kir2.1 = target: T1, Kir2.1 (Homo sapiens, UniProt P63252); test: Ion channel panel (IonWorks Barracuda): Kir2.1; format: cell-based; conditions: Kir2.1; read-out: IC50 of receptor/channel inhibition with reference compound
T1 construct: host or cells: HEK293 or CHO
T1 sequence (P63252 whole entry): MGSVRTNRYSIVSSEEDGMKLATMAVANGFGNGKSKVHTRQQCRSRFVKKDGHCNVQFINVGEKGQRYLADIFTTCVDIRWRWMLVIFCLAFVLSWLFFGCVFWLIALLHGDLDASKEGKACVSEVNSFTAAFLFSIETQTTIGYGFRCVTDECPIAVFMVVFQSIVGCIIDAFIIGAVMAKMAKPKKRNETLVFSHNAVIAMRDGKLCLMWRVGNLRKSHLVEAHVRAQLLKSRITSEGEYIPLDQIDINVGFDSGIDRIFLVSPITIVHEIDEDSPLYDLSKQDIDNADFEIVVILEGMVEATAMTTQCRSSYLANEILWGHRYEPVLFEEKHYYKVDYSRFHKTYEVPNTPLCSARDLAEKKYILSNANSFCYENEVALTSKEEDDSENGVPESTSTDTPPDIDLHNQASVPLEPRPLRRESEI
Method: (§1) This example describes a method for assaying ion channel activity in cells.
(§2) Peptides were screened in duplicate at final concentrations of 20 μM and 200 nM, as determined by amino acid analysis, and diluted into HEPES buffered physiological saline (HBPS). HEK293 or CHO cells from the American Type Culture Collection (ATCC) were transfected with the appropriate ion channel before use. HEK293 cells were grown in Dulbecco's Modified Eagle Medium/Nutrient Mixture F-12, and CHO cells were cultured in Ham's F-12 media. All cultures were supplemented with 10% fetal bovine serum, 100 U/ml penicillin G, 100 μg/ml streptomycin sulfate, and the appropriate selection antibiotics. Prior to use, cells were washed twice with Hank's Balanced Salt Solution, and treated with Accutase cell detachment solution (Sigma-Aldrich). Cells were then washed. Peptides and controls were incubated with cells for at least five minutes.
(§3) Percent inhibition was defined as: (1-(Ipeptide/Icontrol))×100%).
(§4) Percent values were calculated using the following formula: % activation=(IPeptide/Icontrol)×100%, where IPeptide is the current produced by co-application a peptide with agonist, and Icontrol refers to the current produced by stimulation in control. Control used for each ion channel is the reference compound matched to a particular channel, as illustrated in TABLE 10 below.

TRPV1 = target: T2, TRPV1 (Homo sapiens, UniProt Q8NER1); test: Ion channel panel (IonWorks Barracuda): TRPV1; format: cell-based
T2 construct: host or cells: HEK293 or CHO
T2 sequence (Q8NER1 whole entry): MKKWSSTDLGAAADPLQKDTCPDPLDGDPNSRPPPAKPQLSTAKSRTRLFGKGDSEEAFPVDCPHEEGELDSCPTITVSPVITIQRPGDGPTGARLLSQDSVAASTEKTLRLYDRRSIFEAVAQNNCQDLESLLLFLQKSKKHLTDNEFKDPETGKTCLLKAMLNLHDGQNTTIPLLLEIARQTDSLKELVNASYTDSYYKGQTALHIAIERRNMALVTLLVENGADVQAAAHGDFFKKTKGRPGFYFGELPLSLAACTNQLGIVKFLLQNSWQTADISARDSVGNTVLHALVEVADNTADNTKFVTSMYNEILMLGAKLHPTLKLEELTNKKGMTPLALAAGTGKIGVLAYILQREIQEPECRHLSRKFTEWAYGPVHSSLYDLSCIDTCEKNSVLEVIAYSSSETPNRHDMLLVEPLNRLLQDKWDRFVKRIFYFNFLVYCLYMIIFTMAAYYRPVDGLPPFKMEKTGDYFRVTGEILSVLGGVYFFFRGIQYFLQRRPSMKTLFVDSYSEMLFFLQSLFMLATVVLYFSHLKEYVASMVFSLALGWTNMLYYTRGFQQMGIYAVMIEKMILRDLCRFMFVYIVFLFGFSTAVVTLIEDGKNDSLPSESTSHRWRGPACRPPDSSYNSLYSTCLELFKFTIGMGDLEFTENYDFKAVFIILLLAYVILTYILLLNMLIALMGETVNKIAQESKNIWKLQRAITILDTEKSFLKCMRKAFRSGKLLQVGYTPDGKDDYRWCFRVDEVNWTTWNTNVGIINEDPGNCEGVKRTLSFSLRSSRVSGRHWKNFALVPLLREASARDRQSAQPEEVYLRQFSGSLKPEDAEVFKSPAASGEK
Method: as §1, §2, §3, §4

Nav1.7 = target: T3, Nav1.7 (Homo sapiens, UniProt Q15858); test: cell-based; format: cell-based
T3 construct: host or cells: HEK293 or CHO
T3 sequence (Q15858 whole entry): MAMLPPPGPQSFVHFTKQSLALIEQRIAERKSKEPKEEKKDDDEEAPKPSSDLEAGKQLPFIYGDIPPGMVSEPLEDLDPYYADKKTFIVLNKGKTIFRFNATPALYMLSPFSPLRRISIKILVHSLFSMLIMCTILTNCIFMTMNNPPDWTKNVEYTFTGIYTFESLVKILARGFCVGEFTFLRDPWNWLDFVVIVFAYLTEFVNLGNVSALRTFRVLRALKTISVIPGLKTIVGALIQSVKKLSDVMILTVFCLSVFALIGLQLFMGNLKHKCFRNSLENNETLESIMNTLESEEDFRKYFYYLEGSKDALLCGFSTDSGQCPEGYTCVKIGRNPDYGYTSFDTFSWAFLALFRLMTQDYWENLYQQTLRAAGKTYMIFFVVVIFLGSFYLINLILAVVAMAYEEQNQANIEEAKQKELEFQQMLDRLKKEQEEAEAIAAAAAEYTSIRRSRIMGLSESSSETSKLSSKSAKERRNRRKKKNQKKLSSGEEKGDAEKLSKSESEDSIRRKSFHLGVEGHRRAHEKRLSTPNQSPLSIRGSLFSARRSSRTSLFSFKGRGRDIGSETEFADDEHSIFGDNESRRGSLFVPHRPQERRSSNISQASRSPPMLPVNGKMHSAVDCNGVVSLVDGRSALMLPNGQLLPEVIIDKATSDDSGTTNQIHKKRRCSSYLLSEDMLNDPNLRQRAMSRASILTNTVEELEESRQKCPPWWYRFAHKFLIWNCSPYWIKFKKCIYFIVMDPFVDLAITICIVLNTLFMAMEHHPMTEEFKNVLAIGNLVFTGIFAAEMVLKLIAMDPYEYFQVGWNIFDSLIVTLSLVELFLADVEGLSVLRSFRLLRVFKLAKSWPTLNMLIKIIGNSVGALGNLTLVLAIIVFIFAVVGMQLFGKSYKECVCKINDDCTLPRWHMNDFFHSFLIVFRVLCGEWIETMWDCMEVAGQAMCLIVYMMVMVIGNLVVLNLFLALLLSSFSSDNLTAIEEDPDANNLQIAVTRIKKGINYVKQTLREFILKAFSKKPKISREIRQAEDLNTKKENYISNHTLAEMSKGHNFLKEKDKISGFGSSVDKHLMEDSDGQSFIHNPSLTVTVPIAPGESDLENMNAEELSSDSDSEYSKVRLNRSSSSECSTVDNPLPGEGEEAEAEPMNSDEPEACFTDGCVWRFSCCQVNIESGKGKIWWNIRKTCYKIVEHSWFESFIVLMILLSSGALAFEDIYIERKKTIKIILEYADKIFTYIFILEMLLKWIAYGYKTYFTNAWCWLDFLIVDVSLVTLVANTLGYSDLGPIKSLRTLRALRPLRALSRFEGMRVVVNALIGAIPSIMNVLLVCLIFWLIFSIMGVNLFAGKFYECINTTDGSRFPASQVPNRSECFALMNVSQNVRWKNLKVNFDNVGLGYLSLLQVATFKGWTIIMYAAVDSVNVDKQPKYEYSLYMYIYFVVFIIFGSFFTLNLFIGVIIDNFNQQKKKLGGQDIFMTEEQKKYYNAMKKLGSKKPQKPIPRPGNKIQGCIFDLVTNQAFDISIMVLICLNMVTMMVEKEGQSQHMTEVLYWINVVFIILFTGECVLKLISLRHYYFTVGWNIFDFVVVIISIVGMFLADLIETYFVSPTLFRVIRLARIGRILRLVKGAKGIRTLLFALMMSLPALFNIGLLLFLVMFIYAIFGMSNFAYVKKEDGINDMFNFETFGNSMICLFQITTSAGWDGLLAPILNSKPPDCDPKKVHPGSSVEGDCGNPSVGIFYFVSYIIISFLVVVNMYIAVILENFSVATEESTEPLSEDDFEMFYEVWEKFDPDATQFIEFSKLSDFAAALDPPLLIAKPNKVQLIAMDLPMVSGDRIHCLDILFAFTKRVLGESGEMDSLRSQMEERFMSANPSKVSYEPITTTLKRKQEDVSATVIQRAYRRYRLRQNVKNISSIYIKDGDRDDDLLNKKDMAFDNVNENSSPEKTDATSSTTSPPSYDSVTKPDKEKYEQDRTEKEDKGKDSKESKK
Method: as §1
as §2, with “Peptides were screened in duplicate at final concentrations of 20 μM and 200 nM, as determined by amino acid analysis, and diluted into HEPES buffered physiological saline (HBPS).” left out
as §3, §4

α4β2 = target: T4, α4β2 (Homo sapiens, UniProt P17787+P43681); test: Ion channel panel (IonWorks Barracuda): α4β2; format: cell-based; conditions: α4β2; read-out: IC50 of receptor/channel inhibition with reference compound
T4 construct: host or cells: HEK293 or CHO
Method: as §1, §2, §3, §4

Cav2.2 = target: T5, Cav2.2 (Homo sapiens, UniProt Q00975); test: cell-based; conditions: Cav2.2; read-out: IC50 of receptor/channel inhibition with reference compound
T5 construct: host or cells: HEK293 or CHO
Method: as §1, §2, §3, §4

Cav2.1 = target: T6, Cav2.1 (Homo sapiens, UniProt O00555); test: cell-based; conditions: Cav2.1; read-out: IC50 of receptor/channel inhibition with reference compound
T6 construct: host or cells: HEK293 or CHO
Method: as §1, §2, §3, §4

Kv2.1 = target: T7, Kv2.1 (Homo sapiens, UniProt Q14721); test: cell-based
T7 construct: host or cells: HEK293 or CHO
T7 sequence (Q14721 whole entry): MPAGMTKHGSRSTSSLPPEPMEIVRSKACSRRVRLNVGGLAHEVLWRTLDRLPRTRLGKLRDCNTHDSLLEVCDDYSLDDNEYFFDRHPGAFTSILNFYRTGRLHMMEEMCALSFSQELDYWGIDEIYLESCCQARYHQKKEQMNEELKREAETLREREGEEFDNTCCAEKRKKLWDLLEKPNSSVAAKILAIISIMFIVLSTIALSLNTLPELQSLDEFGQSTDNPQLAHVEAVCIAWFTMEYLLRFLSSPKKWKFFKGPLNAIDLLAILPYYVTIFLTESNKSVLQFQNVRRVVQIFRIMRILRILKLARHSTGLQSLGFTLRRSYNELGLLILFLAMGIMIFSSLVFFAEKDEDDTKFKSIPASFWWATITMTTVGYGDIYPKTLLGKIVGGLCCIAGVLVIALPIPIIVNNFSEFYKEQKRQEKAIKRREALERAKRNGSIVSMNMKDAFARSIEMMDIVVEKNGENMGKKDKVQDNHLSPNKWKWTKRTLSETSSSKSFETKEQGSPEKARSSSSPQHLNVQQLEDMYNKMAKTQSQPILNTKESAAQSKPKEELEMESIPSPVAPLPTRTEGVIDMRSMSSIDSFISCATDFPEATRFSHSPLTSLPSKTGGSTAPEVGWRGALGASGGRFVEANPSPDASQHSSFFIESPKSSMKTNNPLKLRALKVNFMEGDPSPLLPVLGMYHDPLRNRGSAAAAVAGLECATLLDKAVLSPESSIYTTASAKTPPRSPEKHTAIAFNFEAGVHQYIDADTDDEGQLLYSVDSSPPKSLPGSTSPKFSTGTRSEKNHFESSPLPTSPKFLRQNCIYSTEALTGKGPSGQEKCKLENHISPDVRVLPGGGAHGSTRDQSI
Method: as §1, §2, §3, §4

Kv1.3 = target: T8, Kv1.3 (Homo sapiens, UniProt P22001); test: cell-based; format: cell-based; conditions: 0.2 or 20 μM; FIG. 2
T8 construct: host or cells: HEK293 or CHO
T8 sequence (P22001 whole entry): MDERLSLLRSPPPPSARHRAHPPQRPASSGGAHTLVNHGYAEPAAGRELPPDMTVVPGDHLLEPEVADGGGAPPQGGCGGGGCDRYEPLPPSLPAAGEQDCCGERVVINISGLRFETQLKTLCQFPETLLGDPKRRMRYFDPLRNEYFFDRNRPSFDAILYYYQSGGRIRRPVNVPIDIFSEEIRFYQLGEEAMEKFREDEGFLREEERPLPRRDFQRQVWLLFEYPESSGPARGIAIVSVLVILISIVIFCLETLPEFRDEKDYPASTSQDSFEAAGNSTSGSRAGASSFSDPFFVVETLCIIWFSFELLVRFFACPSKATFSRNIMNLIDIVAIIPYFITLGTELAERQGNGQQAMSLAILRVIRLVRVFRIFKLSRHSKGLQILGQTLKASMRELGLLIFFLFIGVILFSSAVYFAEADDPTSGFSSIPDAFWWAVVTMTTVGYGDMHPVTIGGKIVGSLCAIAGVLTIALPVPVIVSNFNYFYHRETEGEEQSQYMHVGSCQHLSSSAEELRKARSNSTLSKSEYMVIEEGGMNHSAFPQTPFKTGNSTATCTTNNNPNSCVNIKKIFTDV
Method: as §1, §2, §3, §4

GABA = test: Ion channel panel (IonWorks Barracuda): GABA; format: cell-based; conditions: GABA; read-out: IC50 of receptor/channel inhibition with reference compound
Method: as §1, §2, §3, §4

[Ba+2].[Cl-].[Cl-] [BaCl2, reference compound]
IC50 (Kir2.1): 5.25 µM

Oc1cc2c(cc1O)CN(C(=S)NCCc1ccc(Cl)cc1)CCC2 [Capsazepine, reference compound]
IC50 (TRPV1): 0.09 µM

CCN(CC)CC(=O)Nc1c(C)cccc1C [Lidocaine, reference compound]
IC50 (Nav1.7; IC50 of receptor/channel inhibition with reference compound): 465 µM and 285 µM

CNC1(C)C2CCC(C2)C1(C)C (centres unmarked) [Mecamylamine, reference compound]
IC50 (α4β2): 1.14 µM

COCC(=O)O[C@]1(CCN(C)CCCc2nc3ccccc3[nH]2)CCc2cc(F)ccc2[C@@H]1C(C)C [Mibefradil dihydrochloride, reference compound]
IC50 (Cav2.2): 8.28 µM
IC50 (Cav2.1): 2.12 µM

COc1ccc(CCN(C)CCCC(C#N)(c2ccc(OC)c(OC)c2)C(C)C)cc1OC (centres unmarked) [Verapamil, reference compound]
IC50 (Kv2.1): 78 µM

GSECLEIFKACNPSNDQCCKSSKLVCSRKTRWCKYQIG [SEQ ID NO: 31]
Activity against Nav1.7 channels (Nav1.7; 0.2 or 20 μM, FIG. 2): showed activity on tetrodotoxin-sensitive sodium channels (e.g., Nav1.7)

GSGVPTDVKCRGSPQCIQPCKDAGMRFGKCMNGKCHCTPK [SEQ ID NO: 39]
Kv1.3 inhibition (Kv1.3): showed strong Kv1.3 inhibition

GSQFTDVKCTGSKQCWPVCKQMFGKPNGKCMNGKCRCYS [SEQ ID NO: 19]
Kv1.3 inhibition (Kv1.3): showed strong Kv1.3 inhibition

Picrotoxin [reference compound]
IC50 (GABA): 1.72 µM
